Source: PMC11079024, “Identification of a family of species-selective complex I inhibitors as potential anthelmintics” (Nature Communications, 2024)
“And” between values parts separate entries of the source, which are not always exact repeats. Equal entries are not always repeated. Where two headings read alike, the source gives them in different places.

Experiments:
[1] = molecular target: M. musculus (heart) complex I (Mus musculus, UniProt P03888+Q91WD5+Q9DC70); test: biochemical; format: biochemical; set-up: Complex I activity, dose-response data: unit not given here
Sequence of M. musculus (heart) complex I (Q91WD5 34-463): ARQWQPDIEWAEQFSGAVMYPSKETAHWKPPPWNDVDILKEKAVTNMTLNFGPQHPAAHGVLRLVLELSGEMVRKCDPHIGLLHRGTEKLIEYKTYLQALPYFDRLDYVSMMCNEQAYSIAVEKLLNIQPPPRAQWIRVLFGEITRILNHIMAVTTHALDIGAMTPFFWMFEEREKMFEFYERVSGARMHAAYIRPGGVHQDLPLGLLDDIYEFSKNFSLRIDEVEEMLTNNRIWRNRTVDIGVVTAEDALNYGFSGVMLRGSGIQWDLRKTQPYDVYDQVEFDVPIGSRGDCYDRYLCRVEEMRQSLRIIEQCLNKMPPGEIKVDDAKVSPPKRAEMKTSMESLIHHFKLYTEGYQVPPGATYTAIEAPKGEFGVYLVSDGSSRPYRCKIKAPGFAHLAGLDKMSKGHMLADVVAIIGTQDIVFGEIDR
Sequence of M. musculus (heart) complex I (Q9DC70 36-224): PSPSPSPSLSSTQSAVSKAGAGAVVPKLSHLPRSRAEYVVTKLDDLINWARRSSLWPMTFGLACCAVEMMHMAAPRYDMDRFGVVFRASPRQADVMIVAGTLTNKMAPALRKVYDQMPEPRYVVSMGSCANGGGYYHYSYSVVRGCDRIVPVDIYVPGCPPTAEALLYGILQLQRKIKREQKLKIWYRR
Sequence of M. musculus (heart) complex I (P03888 whole entry): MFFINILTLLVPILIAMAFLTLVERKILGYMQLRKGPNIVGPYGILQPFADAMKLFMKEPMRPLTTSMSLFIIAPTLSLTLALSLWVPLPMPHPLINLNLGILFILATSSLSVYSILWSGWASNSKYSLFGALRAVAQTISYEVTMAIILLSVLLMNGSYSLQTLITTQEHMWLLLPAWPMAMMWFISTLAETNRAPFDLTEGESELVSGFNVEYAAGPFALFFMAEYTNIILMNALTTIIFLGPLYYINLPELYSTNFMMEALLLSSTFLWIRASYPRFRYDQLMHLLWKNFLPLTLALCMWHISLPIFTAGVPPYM
Experimental: Six 8–10-week-old C57Bl/6 female mice (Charles River) were freshly dissected, and their livers and hearts collected into separate 1.5 mL microcentrifuge tubes. Organs were flash-frozen in liquid nitrogen and stored at −80 °C prior to use. The heart of a freshly slaughtered adult cow was obtained from a local abattoir (Peel Sausage Inc.), chopped into ~1-inch cubes and collected into 50 mL falcon tubes. Falcon tubes were flash-frozen in a container of dry ice and stored at −80 °C prior to use. Isolation of mitochondria from all mammalian tissue was carried out following the protocol described above. However, due to size, the initial homogenization of tissue was performed by 15 strokes in a dounce homogenizer (mouse heart) or with several 5 s pulses in small Nutribullet blender (cow heart). All mouse protocols for mouse care and dissection were reviewed and approved by the University of Toronto Animal Care Committee, in accordance with the Canadian Council on Animal Care.
The enzymatic activities of individual ETC complexes (I-IV) were assessed spectrophotometrically in isolated mitochondria using a Varioskan LUX Multimode plate reader (ThermoFisher Scientific). Mitochondrial pellets previously isolated were thawed on ice and resuspended in ice-cold isolation buffer (250 mM sucrose, 10 mM Tris (pH 7.5), 1 mM EDTA). The BCA assay (Walker, 1994) was used to quantify the protein concentration of mitochondria suspensions; solutions were diluted to a concentration of 0.2 mg/mL for use in all assays. For the complex I assay, mitochondria pellets were freeze-thawed on ice three times to increase enzyme accessibility. […] 20 μL mitochondria suspension was then added/mixed with a pipette to initiate the reaction. Immediately following the addition of mitochondria, absorbance was measured (complex I and II: 600 nm; complex III and IV: 550 nm) in 30 s intervals over 15 min. Enzymatic activity was determined in each reaction by plotting absorbance versus time and calculating the slope of the curve during the initial linear phase of the reaction. […] Percent activity of each complex was calculated by dividing the enzyme-specific activity of each well by the enzyme-specific activity of the corresponding solvent controls.
Chemical solutions were prepared in complex I assay buffer composed of 25 mM KPi buffer (pH 7.5), 3 mg/mL bovine serum albumin (BSA), 80 μM NADH, 60 μM decylubiquinone, 160 μM DCIP, 2 μM antimycin A and 2 mM KCN.
For preliminary screens of hit compounds, compounds were screened at 100 μM; data are the average of at least three biological replicates. The complex I and II activity assays were used for additional dose-response experiments. […] For dose responses of benzimidazole analogs, data represent the average of two biological replicates. For all other dose-responses, data represent the average of at least three biological replicates.

adult H. polygyrus = format: cell-based, Heligmosomoides polygyrus; conditions: 10 µM, 24-h exposure, aerobic
Experimental: After either 24- or 72 h chemical treatment, worm viability was manually scored by an examiner using a scale from 0 (dead) to 3 (motile); DMSO was used as a negative control in both 24- and 72 h treatments. The percentage of affected worms (i.e., worms with a score equal to or lower than 1.5) in each biological replicate is shown; data are from two biological replicates. Within each boxplot, black horizontal lines denote group medians, boxes span from the 25th to the 75th percentile of each group’s distribution, and whiskers extend to the maximum and minimum values.
The eleven benzimidazole derivatives were tested at a concentration of 10 µM under aerobic conditions against L3 and adult H. polygyrus.
For the larval assay, mice feces were collected 2 weeks post-infection and eggs were isolated. The eggs were left on agar at room temperature in the dark for eight to 10 days to allow them to develop into L3. Next, 30–40 L3 were incubated (37 °C, 5% CO2) in the culture medium (RPMI 1640 medium + 1% pen./strep. + 5% amphotericin B) containing the derivatives in 96-well plate (Corning, USA) reaching a final volume of 250 µL for 24 h. For the adult drug screening assay, female NMRI mice were euthanized with CO2 and adult H. polygyrus were dissected out of the intestines. Subsequently, three worms were exposed to the culture medium (RPMI 1640 medium + 1% pen./strep. + 5% amphotericin B) with the derivatives (2 mL) in a 24-well plate (Corning, USA) for either 24 or 72 h. DMSO ( < 1%) served as a negative control in both assays. All conditions were tested in duplicates. Finally, 80 µL of hot water ( ~ 80 °C) for L3 and 500 µL of hot water (~80 °C) for adults were added to the wells to check for their viability under a microscope (Carl Zeiss, Germany). Larvae were categorized as being either alive or dead, depending on whether they moved or not. […] The whole experiment was performed two times i.e., two independent biological replicates for both life stages (L3s and adults) and exposure times (24 and 72 h).

[2] = M. musculus (heart) mitochondria, mean of replicates, read-out: percent (%) in vitro complex I activity relative to solvent control
[3] = M. musculus (heart) mitochondria, single replicate, read-out: percent (%) in vitro complex I activity relative to solvent control
[4] = M. musculus (heart) mitochondria, Mean of replicates, read-out: in vitro complex I activity relative to solvent control
[5] = M. musculus (heart) mitochondria, single replicate, read-out: in vitro complex I activity relative to solvent control

## CC(C)Cc1ccc(C(C)c2nc3ccccc3n2C)cc1 (stereo not drawn) [NPD8790]
[1]; [2]
  remaining activity at 0.125 µM: 101%
  remaining activity at 0.313 µM: 97.5%
  remaining activity at 0.625 µM: 100%
  remaining activity at 1.5 µM: 100%
  remaining activity at 3 µM: 99.1%
  remaining activity at 15 µM: 78.9%
  remaining activity at 37.5 µM: 44.3%
  remaining activity at 75 µM: 24.7%
[1]; [3]
  remaining activity at 0.125 µM: 99.7%
  remaining activity at 0.313 µM: 97.7%
  remaining activity at 0.625 µM: 100%
  remaining activity at 1.5 µM: 100%
  remaining activity at 3 µM: 100%
  remaining activity at 15 µM: 77.5%
  remaining activity at 37.5 µM: 40.4%
  remaining activity at 75 µM: 18%
[1]; M. musculus (heart) mitochondria, 0.06 µM, Mean of replicates, read-out: in vitro complex I activity relative to solvent control
  remaining activity at 0.06 µM: 103%
[1]; [4]
  remaining activity at 0.13 µM: 101%
  remaining activity at 0.313 µM: 97.5%
  remaining activity at 0.625 µM: 100%
  remaining activity at 1.5 µM: 100%
  remaining activity at 3 µM: 99.1%
  remaining activity at 15 µM: 78.9%
  remaining activity at 37.5 µM: 44.3%
  remaining activity at 75 µM: 24.7%
[1]; [5]
  remaining activity at 0.13 µM: 99.7%
  remaining activity at 0.313 µM: 97.7%
  remaining activity at 0.625 µM: 100%
  remaining activity at 1.5 µM: 100%
  remaining activity at 3 µM: 100%
  remaining activity at 15 µM: 77.5%
  remaining activity at 37.5 µM: 40.4%
  remaining activity at 75 µM: 18%
[1]; M. musculus, Mean of replicates, read-out: Complex I activity, dose-response data
  activity at 0.0001 µM: 100%
[1]; M. musculus, individual replicates (Rep), read-out: Complex I activity, dose-response data
  activity at 0.0001 µM: 100%
[1]; M. musculus, dose 0.0005 µM, Mean of replicates, read-out: Complex I activity, dose-response data
  activity at 0.0005 µM: 103%
[1]; M. musculus, dose 0.0005 µM, individual replicates (Rep)
  Complex I activity, dose-response data: 104.677 and 101.090 and 100.240
[1]; M. musculus, dose 0.0005 µM, individual replicates (Rep), read-out: Complex I activity, dose-response data
  activity at 0.0005 µM: 105%
[1]; M. musculus, dose 0.001 µM, Mean of replicates, read-out: Complex I activity, dose-response data
  activity at 0.001 µM: 103%
[1]; M. musculus, dose 0.001 µM, individual replicates (Rep)
  Complex I activity, dose-response data: 105.312 and 100.449 and 100.153
[1]; M. musculus, dose 0.001 µM, individual replicates (Rep), read-out: Complex I activity, dose-response data
  activity at 0.001 µM: 106%
[1]; M. musculus, dose 0.0025 µM, Mean of replicates, read-out: Complex I activity, dose-response data
  activity at 0.0025 µM: 104%
[1]; M. musculus, dose 0.0025 µM, individual replicates (Rep)
  Complex I activity, dose-response data: 112.270 and 101.643 and 99.207
[1]; M. musculus, dose 0.0025 µM, individual replicates (Rep), read-out: Complex I activity, dose-response data
  activity at 0.0025 µM: 103%
[1]; M. musculus, dose 0.005 µM, Mean of replicates, read-out: Complex I activity, dose-response data
  activity at 0.005 µM: 104%
[1]; M. musculus, dose 0.005 µM, individual replicates (Rep)
  Complex I activity, dose-response data: 110.480 and 103.776 and 102.056
[1]; M. musculus, dose 0.005 µM, individual replicates (Rep), read-out: Complex I activity, dose-response data
  activity at 0.005 µM: 101%
[1]; M. musculus, dose 0.013 µM, Mean of replicates, read-out: Complex I activity, dose-response data
  activity at 0.013 µM: 104%
[1]; M. musculus, dose 0.013 µM, individual replicates (Rep)
  Complex I activity, dose-response data: 111.361 and 104.185 and 100.073
[1]; M. musculus, dose 0.013 µM, individual replicates (Rep), read-out: Complex I activity, dose-response data
  activity at 0.013 µM: 99.2%
[1]; M. musculus, dose 0.025 µM, Mean of replicates, read-out: Complex I activity, dose-response data
  activity at 0.025 µM: 106%
[1]; M. musculus, dose 0.025 µM, individual replicates (Rep)
  Complex I activity, dose-response data: 117.035 and 103.670 and 100.685
[1]; M. musculus, dose 0.025 µM, individual replicates (Rep), read-out: Complex I activity, dose-response data
  activity at 0.025 µM: 102%
[1]; M. musculus, dose 0.063 µM, Mean of replicates, read-out: Complex I activity, dose-response data
  activity at 0.063 µM: 103%
[1]; M. musculus, dose 0.063 µM, individual replicates (Rep)
  Complex I activity, dose-response data: 102.752 and 117.261 and 99.301 and 94.461
[1]; M. musculus, dose 0.125 µM, Mean of replicates, read-out: Complex I activity, dose-response data
  activity at 0.125 µM: 101%
[1]; M. musculus, dose 0.125 µM, individual replicates (Rep)
  Complex I activity, dose-response data: 109.547 and 101.293 and 94.390
[1]; M. musculus, dose 0.125 µM, individual replicates (Rep), read-out: Complex I activity, dose-response data
  activity at 0.125 µM: 99.7%
[1]; M. musculus, dose 0.313 µM, individual replicates (Rep)
  Complex I activity, dose-response data: 201.293 and 194.390
[1]; M. musculus, dose 0.313 µM, individual replicates (Rep), read-out: Complex I activity, dose-response data
  activity at 0.313 µM: 210%
[1]; M. musculus, dose 0.625 µM, individual replicates (Rep)
  Complex I activity, dose-response data: 301.293 and 294.390
[1]; M. musculus, dose 0.625 µM, individual replicates (Rep), read-out: Complex I activity, dose-response data
  activity at 0.625 µM: 310%
[1]; M. musculus, dose 1.5 µM, individual replicates (Rep)
  Complex I activity, dose-response data: 401.293 and 394.390
[1]; M. musculus, dose 1.5 µM, individual replicates (Rep), read-out: Complex I activity, dose-response data
  activity at 1.5 µM: 410%
[1]; M. musculus, dose 3 µM, Mean of replicates, read-out: Complex I activity, dose-response data
  activity at 3 µM: 99.1%
[1]; M. musculus, dose 3 µM, individual replicates (Rep)
  Complex I activity, dose-response data: 102.668 and 98.080 and 95.248
[1]; M. musculus, dose 3 µM, individual replicates (Rep), read-out: Complex I activity, dose-response data
  activity at 3 µM: 100%
[1]; M. musculus, dose 15 µM, Mean of replicates, read-out: Complex I activity, dose-response data
  activity at 15 µM: 78.9%
[1]; M. musculus, dose 15 µM, individual replicates (Rep)
  Complex I activity, dose-response data: 87.100 and 75.283 and 75.658
[1]; M. musculus, dose 15 µM, individual replicates (Rep), read-out: Complex I activity, dose-response data
  activity at 15 µM: 77.5%
[1]; M. musculus, dose 37.5 µM, Mean of replicates, read-out: Complex I activity, dose-response data
  activity at 37.5 µM: 44.3%
[1]; M. musculus, dose 37.5 µM, individual replicates (Rep)
  Complex I activity, dose-response data: 50.337 and 43.421 and 43.042
[1]; M. musculus, dose 37.5 µM, individual replicates (Rep), read-out: Complex I activity, dose-response data
  activity at 37.5 µM: 40.4%
[1]; M. musculus, dose 75 µM, Mean of replicates, read-out: Complex I activity, dose-response data
  activity at 75 µM: 24.7%
[1]; M. musculus, dose 75 µM, individual replicates (Rep)
  Complex I activity, dose-response data: 29.417 and 25.967 and 25.618
[1]; M. musculus, dose 75 µM, individual replicates (Rep), read-out: Complex I activity, dose-response data
  activity at 75 µM: 18%
[1]; heart mitochondria
  IC50: 28.8 µM and 28.9 µM
Adult H. polygyrus
  effect on adult H. polygyrus viability: potent effects
